One data set deals with Cryptococcus neoformans. Kind of data set: Antifungal activity against Cryptococcus neoformans CGMCC2.3161 assessed as inhibition of fungal growth by CLSI protocol based microdilution method. Type of data set: functional.
Data set [1] has as its system Candida albicans. In words: Antifungal activity against Candida albicans SC5314 assessed as inhibition of fungal growth by CLSI protocol based microdilution method. It is filed as functional. For orientation: In broth dilution the organism is exposed to a series of concentrations in liquid medium.
The test system of data set [2] is Candida albicans. Kind of data set: Antifungal activity against Candida albicans CPCC400616 assessed as inhibition of fungal growth by CLSI protocol based microdilution method. It is filed as functional.
The test system of a further data set is Pichia kudriavzevii. In words: Antifungal activity against Candida krusei AS 2.1045 assessed as inhibition of fungal growth by CLSI protocol based microdilution method. Type of data set: functional.
The subject of another data set is Aspergillus fumigatus. In words: Antifungal activity against Aspergillus fumigatus CGMCC 3.7795 assessed as inhibition of fungal growth by CLSI protocol based microdilution method. It is filed as functional.
In a further data set the test system is Candida parapsilosis. In words: Antifungal activity against Candida parapsilosis ATCC 22019 assessed as inhibition of fungal growth by CLSI protocol based microdilution method. Type of data set: functional. The conditions noted are these: Lodderomyces parapsilosis.
Data set [3] can be described thus: Half life in mouse plasma measured at 180 mins. Type of data set: ADME, cell-free.
The test system of the next data set is Nakaseomyces glabratus. In words: Antifungal activity against Candida glabrata assessed as inhibition of fungal growth by CLSI protocol based microdilution method. Type of data set: functional.
The subject of a further data set is Candida tropicalis. In words: Antifungal activity against Candida tropicalis CGMCC 2.3739 assessed as inhibition of fungal growth by CLSI protocol based microdilution method. Type of data set: functional.
For data set [4], the system named is Candida albicans. In words: Antifungal activity against Candida albicans SC5314 assessed as leakage of endogenous substances at 16 ug/ml incubated for 24 hrs by transmission electron microscopic analysis. It is filed as functional, organism-based. The conditions noted are these: dose 16.0 µg/ml.
In data set [5] the test system is Candida albicans. Kind of data set: Antifungal activity against fluconazole-resistant Candida albicans 17 assessed as inhibition of fungal growth by CLSI based microdilution method. It is filed as functional.
The target in data set [6] is T1, Lanosterol 14-alpha demethylase (Candida albicans (strain SC5314 / ATCC MYA-2876) (Yeast), UniProt P10613). In words: Inhibition of CYP51 in Candida albicans SC5314 assessed as reduction in ergosterol content at 0.031 ug/ml incubated for 24 hrs by GC-MS analysis relative to control. The conditions noted are these: at 0.031 µg/mL.
T1 sequence (P10613 whole entry): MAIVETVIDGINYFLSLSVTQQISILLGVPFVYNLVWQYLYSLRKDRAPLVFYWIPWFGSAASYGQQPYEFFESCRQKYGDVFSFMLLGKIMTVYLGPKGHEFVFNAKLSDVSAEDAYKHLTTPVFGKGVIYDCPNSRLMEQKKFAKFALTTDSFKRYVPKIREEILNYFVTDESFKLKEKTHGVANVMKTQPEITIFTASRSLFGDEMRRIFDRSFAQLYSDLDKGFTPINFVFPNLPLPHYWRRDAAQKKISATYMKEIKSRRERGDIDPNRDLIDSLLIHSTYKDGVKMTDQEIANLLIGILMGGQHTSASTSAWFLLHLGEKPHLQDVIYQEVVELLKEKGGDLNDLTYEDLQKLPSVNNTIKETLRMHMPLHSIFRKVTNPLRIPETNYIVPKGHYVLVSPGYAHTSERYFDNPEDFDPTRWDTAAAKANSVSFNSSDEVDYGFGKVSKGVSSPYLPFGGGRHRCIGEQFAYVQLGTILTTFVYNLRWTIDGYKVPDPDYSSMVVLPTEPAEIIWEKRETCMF
The target in data set [7] is T1, Lanosterol 14-alpha demethylase. Kind of data set: Inhibition of CYP51 in Candida albicans SC5314 assessed as increase in lanosterol level at 0.031 ug/ml incubated for 24 hrs by GC-MS analysis relative to control. The conditions noted are these: at 0.031 µg/mL.
Data set [8] has the same target. In words: Inhibition of CYP51 in Candida albicans SC5314 assessed as increase in eburicol level at 0.031 ug/ml incubated for 24 hrs by GC-MS analysis relative to control. The conditions noted are these: at 0.031 µg/mL.
The test system of data set [9] is Candida albicans. In words: Fungicidal activity against Candida albicans assessed as inhibition of fungal growth measured after 48 hrs by CLSI protocol based microdilution method. It is filed as functional.
Data set [10] is described as follows: Metabolic stability in mouse liver microsomes assessed as half life. Type of data set: ADME, Microsome. In general terms: Microsomes from liver hold many membrane-bound enzymes, among them those of drug oxidation.
Data set [11] deals with Candida albicans. Kind of data set: Antifungal activity against fluconazole-resistant Candida albicans 904 assessed as inhibition of fungal growth by CLSI based microdilution method. Type of data set: functional.
In data set [12] the test system is Candida albicans. Kind of data set: Antifungal activity against Candida albicans assessed as inhibition of fungal growth by CLSI protocol based microdilution method. Type of data set: functional.
Data set [13] relates to Candida albicans. Kind of data set: Antifungal activity against fluconazole-resistant Candida albicans CaR assessed as inhibition of fungal growth by CLSI based microdilution method. It is filed as functional.
Data set [14] concerns Candida albicans. Kind of data set: Antifungal activity against Candida albicans SC5314 assessed as fungal cell membrane injury at 16 ug/ml incubated for 24 hrs by transmission electron microscopic analysis. The conditions noted are these: dose 16.0 µg/ml. It is filed as functional, organism-based.
Data set [15] concerns Candida albicans. In words: Antifungal activity against fluconazole-resistant Candida albicans 901 assessed as inhibition of fungal growth by CLSI based microdilution method. It is filed as functional.
The nature of data set [16]: Stability in mouse plasma assessed as parent compound remaining measured at 180 mins. The conditions noted are these: read-out: Stability. Type of data set: ADME, cell-free.
Data set [17] addresses T1, Lanosterol 14-alpha demethylase. Kind of data set: Inhibition of CYP51 in Candida albicans SC5314 assessed as increase in obtusifoliol level at 0.031 ug/ml incubated for 24 hrs by GC-MS analysis relative to control. The conditions noted are these: at 0.031 µg/mL.
Data set [18] concerns Candida albicans. In words: Antifungal activity against fluconazole-resistant Candida albicans 632 assessed as inhibition of fungal growth by CLSI based microdilution method. Type of data set: functional.

Structures are written as SMILES. In brackets after ≈: the same amount, converted by molar mass. Activity calls are given as the source filed them. Bounds are passed on as bounds.

For the compound `Clc1ccc(COC(Cn2ccnc2)c2ccc(Cl)cc2Cl)c(Cl)c1` (configuration not stated) [MICONAZOLE], the MIC – broadly, the smallest concentration in the dilution series that meets the test's criterion for growth inhibition – was found to be 0.25 µg/mL (≈ 0.601 µM) with Cryptococcus neoformans; 0.03 µg/mL (≈ 0.0721 µM) with Candida albicans [1]; 0.25 µg/mL (≈ 0.601 µM) in the data set on Candida albicans [2]; 0.5 µg/mL (≈ 1.2 µM) in the data set with Pichia kudriavzevii; 2 µg/mL (≈ 4.81 µM) in the data set with Aspergillus fumigatus; 0.25 µg/mL (≈ 0.601 µM) with Candida parapsilosis. The MIC was determined as 0.5 µg/mL (≈ 1.2 µM) with Nakaseomyces glabratus and 1 µg/mL (≈ 2.4 µM) in the data set with Candida tropicalis. For the same compound, the half-life (usually the time needed for the level to fall by half in the phase considered) in data set [3] is more than 6 h.

Consider `OC(Cn1cncn1)(Cn1cncn1)c1ccc(F)cc1F` [FLUCONAZOLE], for which the MIC in the data set with Cryptococcus neoformans was 4 µg/mL (≈ 13.1 µM); in the data set on Candida albicans [1] it was 0.5 µg/mL (≈ 1.63 µM); in the data set on Candida albicans [5], more than 128 µg/mL; with Candida albicans [2] it was 4 µg/mL (≈ 13.1 µM); in the data set on Pichia kudriavzevii, 32 µg/mL (≈ 104 µM); with Candida albicans [11] it was more than 128 µg/mL. The MIC in the data set on Aspergillus fumigatus was more than 128 µg/mL; with Candida parapsilosis it was 4 µg/mL (≈ 13.1 µM); in the data set with Candida albicans [12], more than 128 µg/mL; in the data set on Candida albicans [13], more than 128 µg/mL; in the data set with Candida albicans [15], more than 128 µg/mL; with Nakaseomyces glabratus, 32 µg/mL (≈ 104 µM). Also, the MIC is 2 µg/mL (≈ 6.53 µM) with Candida tropicalis and more than 128 µg/mL in the data set with Candida albicans [18]. Moreover, the outcome in the data set on Candida albicans [4] and in the data set on Candida albicans [14] was Active. Further, the “inhibition (INH)” value in data set [6] is recorded as 48.4%; in data set [7], “Active”; in data set [8], “Active”; in data set [17] it was “Active”. Moreover, the MFC (as a rule, the lowest tested concentration that kills the fungus rather than only halting it) with Candida albicans [9] is more than 128 µg/mL. Further, the figures for the half-life in [10] and in data set [3] were more than 2 h and more than 6 h, respectively. The remaining at 3 h in [16] turned out to be 116%.

For `O=c1ccc2ccc(COC(Cn3ccnc3)c3ccc(Cl)cc3Cl)cc2o1` (configuration not stated), the MIC turned out to be 2 µg/mL (≈ 4.82 µM) in the data set on Cryptococcus neoformans; 0.03 µg/mL (≈ 0.0722 µM) with Candida albicans [1]; 4 µg/mL (≈ 9.63 µM) in the data set with Candida albicans [5]; 0.06 µg/mL (≈ 0.144 µM) with Candida albicans [2]; 2 µg/mL (≈ 4.82 µM) in the data set on Pichia kudriavzevii; 1 µg/mL (≈ 2.41 µM) with Candida albicans [11]. Also, the MIC is 1 µg/mL (≈ 2.41 µM) in the data set on Aspergillus fumigatus; 0.5 µg/mL (≈ 1.2 µM) in the data set with Candida parapsilosis; 1 µg/mL (≈ 2.41 µM) in the data set on Candida albicans [13]; 4 µg/mL (≈ 9.63 µM) in the data set on Candida albicans [15]; 0.5 µg/mL (≈ 1.2 µM) in the data set on Nakaseomyces glabratus; 0.25 µg/mL (≈ 0.602 µM) in the data set on Candida tropicalis. For the same compound, in the data set with Candida albicans [18], the MIC came to 4 µg/mL (≈ 9.63 µM). In addition, the half-life in [3] is more than 6 h.
